Results as given in patent US9889180B2, “Method of treating cancer” (Agency for Science, Technology and Research, priority 2012, dated 2018).

Assays:
[1] = test system: IFNGR1 expression and STAT1 activation; experiment: Western blot of IFNGR1 and IFN signaling in T47D cells; assay type: cell-based, human
Method: Western Blotting was performed as described previously. Briefly, Cells were scraped, collected, and lysed in RIPA buffer. To release histones from chromatin, cell lysates were further sonicated for 15 sec using a XL2000 Microson Ultrasonic Processor (Misonix). Equal amounts of protein (30 μg) were separated on SDS-polyacrylamide gels and transferred to PVDF membranes. The blots were probed with antibodies against EED (07-368), SUZ12 (07-379), trimethylated H3-K27 (07-449), Acetyl-Histone H3 (06-599), which were purchased from Upstate Biotechnology. IFNGR1 (GIR-94) and anti-IFI16 (1G7) were purchased from Santa Cruz. EZH2 phospho S21 (00388) was purchased from Bethyl Laboratories. EZH2 (AC22), P110α PI3K, p-AKT (T308), p-AKT (S473), pSTAT1Y701, total STAT1, Histone H3 (3H1), Beclin-1 and cleaved PARP were purchased from Cell Signaling. Myc and Actin were purchased from Roche Applied Science and Sigma-Aldrich, respectively.

IFNGR1 promoter = experiment: ChIP analysis of EZH2 and H3K27me3 enrichments at IFNGR1 in DU145 cells; assay type: cell-based, human; details: DZNep (2.5 μM), 3 days
Method: ChIP assays were performed as described previously. […] The immunoprecipitated DNA was quantified by quantitative real-time PCR using KAPA SyBr Fast qPCR kit (KAPA biosystems) with the specific ChIP primers as listed in the Table 4. Quantification of binding to the promoter was defined as the percentage of the whole cell lysate input DNA. The fold enrichment was derived by normalizing the specific antibody enriched against the IgG-enriched chromatin. CNR1 serves a positive control and Actin is a negative control. Significance of target genes was assessed relative to Actin level.

RWPE1-PI3K cells = experiment: FACS cell death analysis in RWPE1-PI3K cells; assay type: cell-based, human; details: DZNep (2.5 μM) for 3 days with increasing doses of IFN-γ
Method: For the assessment of cell death, cells were harvested in 70% ethanol. Fixed cells were stained with Propidium Iodide (P.I) (50 μg/mL). The stained cells were analyzed for DNA content by FACS in a FACSCalibur (Becton Dickinson Instrument). % of cell death was defined as the sub-G1 population quantified using the CellQuest software (Becton Dickinson). The percentage of dead cells or sub-G1 cells was calculated by comparing the results of each experiment to the results from DMSO-treated cells. Each assay was repeated a minimum of three times, with results reported as means+s.e.m.

[2] = test system: EZH2 and IFNGR1 expression; experiment: Immunohistochemistry of EZH2 and IFNGR1 in DU145 xenograft tumors; assay type: in vivo; details: tumors resected from treated mice
Method: Tissue microarray slides (PR956, BR1503b, LC2083, and LV6161) were purchased from US Biomax. Staining and image analysis of tissue microarray were performed by Histopathology Department from Institute of Molecular and Cell Biology, Agency for Science, Technology, and Research (A*STAR), Singapore. Anti-EZH2 (D2C9 XP) antibody was purchased from Cell Signaling, anti-MYC (9E10) and anti-IFNGR1 antibody (GIR-94) was purchased from Santa Cruz Biotechnology. Briefly, five-micron paraffin-embedded tissue sections cut, deparaffinized, rehydrated, antigens were retrieved by Proteinase K solution; sections were then incubated in 3% H2O2 at room temperature to block endogenous peroxidase. Slides were incubated in primary antibody against EZH2 or IFNGR1 for 45 mins followed by 30 min incubation with anti-mouse Labelled Polymer (Dako, Calif.). Specificity of the immunostaining was determined by the inclusion of isotype-specific IgG as negative control. […]
For in vivo evaluation of DZNep and IFN-γ treatment, the experiments were conducted in compliance with animal protocol approved by the ASTAR-Biopolis Institutional Animal Care and Use Committee (IACUC) of Singapore. […] Tumors were measured by vernier calliper at least twice per week and tumors volume was calculated with formula: V=W*W*L/2. […] Differences among groups and treatments were determined by ANOVA followed by t tests. […]

[3] = test system: DU145-derived prostatospheres; experiment: Prostatosphere formation assay, DU145; assay type: cell-based, human; details: EZH2 knockdown in combination with IFN-γ, 7 days
Method: Prostatospheres were generated according to protocols known to the skilled person in the art. In order to obtain prostatospheres from either DU145 or LNCaP, exponentially growing cultures were dissociated to single cells by standard trypsinization, washed three times with PBS and plated at a density of 1×10^4 cells/well in 6-well ultra-low attachment plates (Corning) containing 3 ml of SCM medium (DMEM:F12 plus 10 ng/mL bFGF, 20 ng/mL EGF, […], and 0.4% BSA) supplemented with 1% KO serum replacement (Invitrogen/Gibco). The cells were treated with DZNep or IFN-γ as indicated the next day and cultured for 7 days. 7 days old prostatospheres formed were stained with 4 μg/ml p-Iodonitrotetrazolium Violet (INT) overnight and were counted and analyzed using a GelCount™ automatic plate scanner (Oxford Optronics) and GelCount Version 0.025.1 software (Oxford Optronics). Plates were scanned at 1200 dpi and the colony detection algorithm was optimized for each cell type and culture time.

IFNGR1 expression = experiment: qRT-PCR of IFNGR1 and IFNAR1 in RWPE1-MYC cells; assay type: cell-based, human
Method: Target-specific siRNA and non-targeting control siRNA were purchased from 1st Base Singapore and Integrated DNA technologies (IDT) with the following target sequences respectively: EZH2 siRNA: 5′-GACUCUGAAUGCAGUUGCU-3′ (SEQ ID NO: 1); MYC siRNA: 5′-[…]-3′ (SEQ ID NO:2). All siRNA were designed by 1st Base Singapore and IDT respectively. For transfection, 30 nM siRNAs were used to transfect cells. 48 h after transfection cell pellets were collected and subjected indicated assays.
Total RNA was isolated by using Trizol (Invitrogen) and purified with the RNeasy Mini Kit (Qiagen). The microarray hybridization was performed using the Illumina Gene Expression Sentrix BeadChip HumanRef-8_V3, and data analysis was performed by GeneSpring software from Agilent Technologies as described previously. The analyzed gene sets by GeneSpring were next subjected to Ingenuity Pathway Analysis (IPA) for gene ontology (GO) analysis. Reverse transcription and quantitative PCR assays were performed using High Capacity cDNA Archive kit and KAPA SyBr Fast qPCR kit (KAPA biosystems). For quantification of mRNA levels, 18S level was used as an internal control. All reactions were analyzed in an Applied Biosystems PRISM 7500 Fast Real-Time PCR system in 96-well plate format.

| Molecule | IFNGR1 expression [1] | STAT1 activation and PARP cleavage ([1]; DZNep co-treated with IFN-γ) | EZH2 and H3K27me3 enrichments at the IFNGR1 gene promoter (IFNGR1 promoter) | induction of apoptosis / cell death (RWPE1-PI3K cells) | EZH2 expression in tumors (IHC) [2] | IFNGR1 expression in tumors (IHC) [2] | tumorsphere formation after knockdown [3] | IFNGR1 expression after knockdown (IFNGR1 expression) |
| --- | --- | --- | --- | --- | --- | --- | --- | --- |
| Cl.Nc1nccc2c1ncn2[C@@H]1C=C(CO)[C@@H](O)[C@H]1O [DZNep, (−)-1-[(1R,4R,5S)-3-(Hydroxymethyl)-4,5-dihydroxy-2-cyclopenten-1-yl]4-aminoimidazo[4,5-c]pyridine hydrochloride] | restored the IFNGR1 expression | increased STAT1 activation and PARP cleavage | reduced both EZH2 and H3K27me3 enrichments | but not RWPE1-PI3K cells | downregulation of EZH2 | upregulation of IFNGR1 |  |  |
| EZH2 knockdown: EZH2 siRNA: 5′-GACUCUGAAUGCAGUUGCU-3′ (SEQ ID NO: 1) (other strand not given here) |  |  |  |  |  |  | efficiently inhibited the tumorsphere formation | restore the expression of IFNGR1 |
